In patent US6890517B2, “Inhalable formulation of a solution containing a tiotropium salt” (Boehringer Ingelheim Pharma KG, priority 2000, dated 2005):

Assay: stability of budesonide dissolved in water/ethanol at low pH
Assay type: physicochemical
Conditions: pH of 3.5; dissolved in a mixture of water and ethanol
Description: In the case of steroids, these are preferably used in suspended form, especially fluticasone. This is particularly true if the solvent used is only water without ethanol. If ethanol is added, the steroid may also be formulated as a solution.

With CCCC1O[C@@H]2C[C@H]3[C@@H]4CCC5=CC(=O)C=C[C@]5(C)[C@H]4[C@@H](O)C[C@]3(C)[C@]2(C(=O)CO)O1 (stereo partly shown) [budesonide] the stability in solution was “sufficiently stable”.
